Experimental data as given in patent publication US6596727B1, “Substituted pyrimidines, processes for their preparation, and their use as pesticides and fungicides” (priority 1992, dated 2003).

How the values were obtained:
[1] = system: larvae (L3) of the species Nilaparvata lugens; test: Nilaparvata lugens larvae test on dipped rice plants; type: in vivo; conditions: 250 ppm of the active ingredient, 21° C., after 4 days
Description: Rice seed is placed into glass culture dishes containing cotton wool and germinated under moist conditions and, after the stem has grown to a length of approx. 8 cm, it is dipped together with the leaves into the test solution. The test solution is allowed to run off from the treated rice plants, and the plants are transferred to culture containers and populated with batches of 10 larvae (L3) of the species Nilaparvata lugens, the individual test concentrations being kept separate from each other. After the sealed culture containers have been kept at 21° C., the mortality of the cicada larvae can be determined after 4 days.
Under these test conditions, the compounds according to Example No. 9, 25, 30, 93, 99, 432 have a 100% activity at a test concentration of 250 ppm of the active ingredient.

[2] = system: tropical cattle ticks (Boophilus microplus); test: In vitro test with tropical cattle ticks, inhibition of oviposition; type: in vivo; conditions: 500 ppm active substance; females immersed five minutes; two weeks after the treatment
Procedure: In vitro test with tropical cattle ticks (Boophilus microplus)
To prepare a suitable preparation of active substance, the active substances were dissolved at a concentration of 10% (w/v) in a mixture composed of dimethylformamide (85 g), nonylphenol polyglycol ether (3 g) and oxethylated castor oil (7 g), and the resulting emulsion concentrates were diluted with water to a test concentration of 500 ppm.
Batches of ten females of the tropical tick Boophilus microplus which had sucked themselves full were immersed for five minutes in these active substance dilutions. The ticks were subsequently dried on filter paper and then attached, by their backs, to an adhesive film for the purpose of oviposition. The ticks were kept in an incubator at 28° C. and an atmospheric humidity of 90%.
As a control, female ticks were merely immersed in water. The inhibition of oviposition two weeks after the treatment was used to assess the effectiveness. 100% mean that no ticks have deposited eggs, 0% means that all ticks have deposited eggs.

Compound: CCc1ncnc(OC2CCC(c3ccc(OC(C)(C)C)cc3)CC2)c1Cl (stereo not drawn) [Example 432]
- mortality of the cicada larvae (activity) [1]: 100%

Compound: COCc1ncnc(NC2CCC(c3ccccc3)CC2)c1OC (mixture of isomers) [Example 93]
- mortality of the cicada larvae (activity) [1]: 100%

Compound: COCc1ncnc(NC2CCC(C(C)C)CC2)c1OC (stereo not drawn) [Example 25]
- mortality of the cicada larvae (activity) [1]: 100%

Compound: CC(C)(C)C1CCC(Oc2ncnc3c2CCCC3)CC1 (stereo not drawn) [Example 19]
- inhibition of oviposition [2]: 100%

Compound: CC(C)(C)C1CCC(Nc2ncnc3c2CCCC3)CC1 (mixture of isomers) [Example 10]
- inhibition of oviposition [2]: 100%

Compound: c1ccc(C2CCC(Oc3ncnc4c3CCCC4)CC2)cc1 (stereo not drawn) [Example 106]
- inhibition of oviposition [2]: 100%

Compound: COCc1ncnc(NC2CCC(C(C)(C)C)CC2)c1OC (mixture of isomers) [Example 9]
- mortality of the cicada larvae (activity) [1]: 100%

Compound: CCC(C)(C)C1CCC(Nc2ncnc(COC)c2OC)CC1 (stereo not drawn) [Example 30]
- mortality of the cicada larvae (activity) [1]: 100%
- inhibition of oviposition [2]: 100%
